In brackets after ≈: the same amount, converted by molar mass. Where two headings read alike, the source gives them in different places.
What was measured:
K. pneumoniae A20346 = assay: MIC, agar dilution technique (Mueller-Hinton Agar); assay type: cell-based; details: Klebsiella pneumoniae; K. pneumoniae A20346; Gn-Ib, ampicillin and cephalothin resistant; read-out: Minimum Inhibitory Concentration
From the text: (§1) Each of these groups of organisms is constituted of five individual strains of microorganism. The Gp-Ia organisms are Gram-positive staphylococci which are sensitive to penicillin. The Gp-Ib organisms are Gram-positive staphylococci which are resistant to penicillin and produce penicillinase. The Gn-Ia organisms are Gram-negative bacteria which are sensitive to ampicillin and cephalothin. The Gn-Ib organisms are Gram-negative bacteria which are resistant to ampicillin and cephalothin.

S. aureus A9602 = assay: MIC, agar dilution technique (Mueller-Hinton Agar); assay type: cell-based; details: Staphylococcus aureus; S. aureus A9602; Gp-Ib, penicillin resistant; read-out: Minimum Inhibitory Concentration
From the text: as §1

E. coli A15148 = assay: MIC, agar dilution technique (Mueller-Hinton Agar); assay type: cell-based; details: Escherichia coli; E. coli A15148; Gn-Ib, ampicillin and cephalothin resistant; read-out: Minimum Inhibitory Concentration
From the text: as §1

S. aureus Russell = assay: MIC, agar dilution technique (Mueller-Hinton Agar); assay type: cell-based; details: Staphylococcus aureus; S. aureus Russell; Gp-Ib, penicillin resistant; read-out: Minimum Inhibitory Concentration
From the text: as §1

S. aureus Smith = assay: MIC, agar dilution technique (Mueller-Hinton Agar); assay type: cell-based; details: Staphylococcus aureus, Gp-Ia, penicillin sensitive, read-out: Minimum Inhibitory Concentration
From the text: as §1

S. aureus Terajima = assay: MIC, agar dilution technique (Mueller-Hinton Agar); assay type: cell-based; details: Staphylococcus aureus, Gp-Ia, penicillin sensitive, read-out: Minimum Inhibitory Concentration
From the text: as §1

K. pneumoniae D11 = assay: MIC, agar dilution technique (Mueller-Hinton Agar); assay type: cell-based; details: Klebsiella pneumoniae; K. pneumoniae D11; Gn-Ia, ampicillin and cephalothin sensitive; read-out: Minimum Inhibitory Concentration
From the text: as §1

S. aureus A9601 = assay: MIC, agar dilution technique (Mueller-Hinton Agar); assay type: cell-based; details: Staphylococcus aureus; S. aureus A9601; Gp-Ia, penicillin sensitive; read-out: Minimum Inhibitory Concentration
From the text: as §1

E. coli A20341-1 = assay: MIC, agar dilution technique (Mueller-Hinton Agar); assay type: cell-based; details: Escherichia coli, A203411; E. coli A20341-1; Gn-Ib, ampicillin and cephalothin resistant; read-out: Minimum Inhibitory Concentration
From the text: as §1

S. aureus A9497 = assay: MIC, agar dilution technique (Mueller-Hinton Agar); assay type: cell-based; details: Staphylococcus aureus, Gp-Ia, penicillin sensitive, read-out: Minimum Inhibitory Concentration
From the text: as §1

E. coli Juhl = assay: MIC, agar dilution technique (Mueller-Hinton Agar); assay type: cell-based; details: Escherichia coli; E. coli Juhl; Gn-Ia, ampicillin and cephalothin sensitive; read-out: Minimum Inhibitory Concentration
From the text: as §1

K. pneumoniae A20345 = assay: MIC, agar dilution technique (Mueller-Hinton Agar); assay type: cell-based; details: Klebsiella pneumoniae, Gn-Ib, ampicillin and cephalothin resistant, read-out: Minimum Inhibitory Concentration
From the text: as §1

P. mirabilis A9900 = assay: MIC, agar dilution technique (Mueller-Hinton Agar); assay type: cell-based; details: Proteus mirabilis; P. mirabilis A9900; Gn-Ia, ampicillin and cephalothin sensitive; read-out: Minimum Inhibitory Concentration
From the text: as §1

S. aureus BX-1633-2 = assay: MIC, agar dilution technique (Mueller-Hinton Agar); assay type: cell-based; details: Staphylococcus aureus, BX16332; S. aureus BX-1633-2; Gp-Ib, penicillin resistant; read-out: Minimum Inhibitory Concentration
From the text: as §1

P. mirabilis A9554 = assay: MIC, agar dilution technique (Mueller-Hinton Agar); assay type: cell-based; details: Proteus mirabilis; P. mirabilis A9554; Gn-Ia, ampicillin and cephalothin sensitive; read-out: Minimum Inhibitory Concentration
From the text: as §1

S. aureus A9534 = assay: MIC, agar dilution technique (Mueller-Hinton Agar); assay type: cell-based; details: Staphylococcus aureus, Gp-Ia, penicillin sensitive, read-out: Minimum Inhibitory Concentration
From the text: as §1

E. coli A9660 = assay: MIC, agar dilution technique (Mueller-Hinton Agar); assay type: cell-based; details: Escherichia coli; E. coli A9660; Gn-Ia, ampicillin and cephalothin sensitive; read-out: Minimum Inhibitory Concentration
From the text: as §1

S. aureus A15092 = assay: MIC, agar dilution technique (Mueller-Hinton Agar); assay type: cell-based; details: Staphylococcus aureus, Gp-Ib, penicillin resistant, read-out: Minimum Inhibitory Concentration
From the text: as §1

S. aureus No. 193 = assay: MIC, agar dilution technique (Mueller-Hinton Agar); assay type: cell-based; details: Staphylococcus aureus, Gp-Ib, penicillin resistant, read-out: Minimum Inhibitory Concentration
From the text: as §1

E coli RGN-823 = assay: MIC, agar dilution technique (Mueller-Hinton Agar); assay type: cell-based; details: Escherichia coli, RGN823, Gn-Ib, ampicillin and cephalothin resistant, read-out: Minimum Inhibitory Concentration
From the text: as §1

Mouse blood levels = details: mouse; for half-life: T 1/2
From the text: Table 3 contains comparative blood level data for mice treated orally and intramuscularly with the hydroxyphenylglycyl derivatives.

Mouse urinary recovery = assay type: in vivo, mice; details: mouse, urine, po, 20 mg/kg; for dose excreted at 24 h: p.o.
H. influenzae A22157 = assay: In vitro activity against fastidious bacteria; assay type: cell-based; details: Haemophilus influenzae, ampicillin-resistant (ABPC-R)
From the text: (§2) Table 5 contains comparative data for in vitro antibacterial activity against fastidious bacteria.

H. influenzae A22483 = assay: In vitro activity against fastidious bacteria; assay type: cell-based; details: Haemophilus influenzae; H. influenzae A22483; ampicillin-sensitive (ABPC-S); read-out: MIC
From the text: as §2

N. gonorrheae A20143 = assay: In vitro activity against fastidious bacteria; assay type: cell-based; details: N. gonorrheae A20143; read-out: MIC
From the text: as §2

S. pneumoniae Type I = assay: In vitro activity against fastidious bacteria; assay type: cell-based; details: Streptococcus pneumoniae; S. pneumoniae Type I; read-out: MIC
From the text: as §2

## C/C=C\C1=C(C(=O)O)N2C(=O)C(NC(=O)[C@H](N)c3ccc(O)cc3)[C@H]2SC1 (stereo partly drawn) [BMY-28100, 7-[D-2-amino-2-(4-hydroxyphenyl)acetamido]-3-[(Z)-1-propen-1-yl]-3-cephem-4-carboxylic acid]
K. pneumoniae A20346
  MIC: 25 µg/mL (≈ 64.2 µM)
S. aureus A9602
  MIC: 0.8 µg/mL (≈ 2.05 µM)
E. coli A15148
  MIC: 50 µg/mL (≈ 128 µM)
S. aureus Russell
  MIC: 0.8 µg/mL (≈ 2.05 µM)
S. aureus Smith
  MIC: 0.4 µg/mL (≈ 1.03 µM)
S. aureus Terajima
  MIC: 0.4 µg/mL (≈ 1.03 µM)
K. pneumoniae D11
  MIC: 0.8 µg/mL (≈ 2.05 µM)
S. aureus A9601
  MIC: 0.8 µg/mL (≈ 2.05 µM)
E. coli A20341-1
  MIC: 25 µg/mL (≈ 64.2 µM)
S. aureus A9497
  MIC: 0.4 µg/mL (≈ 1.03 µM)
E. coli Juhl
  MIC: 1.6 µg/mL (≈ 4.11 µM)
K. pneumoniae A20345
  MIC: 6.3 µg/mL (≈ 16.2 µM)
P. mirabilis A9900
  MIC: 0.8 µg/mL (≈ 2.05 µM)
S. aureus BX-1633-2
  MIC: 0.8 µg/mL (≈ 2.05 µM)
P. mirabilis A9554
  MIC: 0.8 µg/mL (≈ 2.05 µM)
S. aureus A9534
  MIC: 0.4 µg/mL (≈ 1.03 µM)
E. coli A9660
  MIC: 0.8 µg/mL (≈ 2.05 µM)
S. aureus A15092
  MIC: 1.6 µg/mL (≈ 4.11 µM)
S. aureus No. 193
  MIC: 1.6 µg/mL (≈ 4.11 µM)
E coli RGN-823
  MIC: > 50 µg/mL
Mouse blood levels; blood, im, 20 mg/kg
  concentration at 10 min: 14000 ng/mL
  concentration at 20 min: 15000 ng/mL
  concentration at 0.5 h: 12000 ng/mL
  concentration at 40 min: 8500 ng/mL
  concentration at 50 min: 7500 ng/mL
  concentration at 1 h: 5400 ng/mL
  concentration at 1.5 h: 2500 ng/mL
  concentration at 2 h: 1600 ng/mL
Mouse blood levels; blood, po, 20 mg/kg
  concentration at 0.5 h: 9300 ng/mL
  concentration at 1 h: 6900 ng/mL
  concentration at 2 h: 4200 ng/mL
  concentration at 3 h: 2500 ng/mL
  concentration at 4 h: 970 ng/mL
  concentration at 5 h: 810 ng/mL
  concentration at 6 h: 650 ng/mL
  concentration at 7 h: 340 ng/mL
Mouse blood levels; blood, po, 100 mg/kg
  concentration at 0.5 h: 33000 ng/mL
  concentration at 1 h: 17000 ng/mL
  concentration at 2 h: 6500 ng/mL
  concentration at 3 h: 4500 ng/mL
  concentration at 4 h: 3300 ng/mL
  concentration at 5 h: 2700 ng/mL
  concentration at 6 h: 2500 ng/mL
  concentration at 7 h: 1700 ng/mL
Mouse blood levels; in vivo, im, 20 mg/kg
  AUC: 13000 ng·h/mL
  half-life: 0.52 h
Mouse blood levels; in vivo, po, 20 mg/kg
  Cmax: 12000 ng/mL
  T 1/2: 2.3 h
  AUC: 20000 ng·h/mL
  half-life: 1.4 h
Mouse blood levels; in vivo, po, 100 mg/kg
  AUC: 51000 ng·h/mL
  half-life: 2.1 h
Mouse urinary recovery; 0-2 hr
  dose excreted at 2 h: 60%
Mouse urinary recovery; 2-4 hr
  dose excreted at 4 h: 5.3%
Mouse urinary recovery; 4-6 hr
  dose excreted at 6 h: 1.3%
Mouse urinary recovery; 6-24 hr, read-out: Mouse urinary recovery 6-24 hr
  dose excreted at 24 h: 2.3%
Mouse urinary recovery; total, read-out: Mouse urinary recovery Total
  dose excreted at 24 h: 69%
H. influenzae A22157
  MIC: 0.8 µg/mL (≈ 2.05 µM)
H. influenzae A22483
  MIC: 0.8 µg/mL (≈ 2.05 µM)
N. gonorrheae A20143
  MIC: 0.8 µg/mL (≈ 2.05 µM)
S. pneumoniae Type I
  MIC: 0.1 µg/mL (≈ 0.257 µM)

From patent US4619925A, “3-Propenyl cephalosporin derivatives” (priority 1985, dated 1986)
